Experiments:
[1] = Metabolic stability of radiolabeled GS-9770 in human liver microsomes; format: in vitro ADME; details: radiolabeled GS-9770, human liver microsomes
[2] = Predicted clearance from rat liver microsome fractions; format: in vitro ADME
[3] = Predicted clearance from dog liver microsome fractions; format: in vitro ADME
[4] = In vivo pharmacokinetics in monkey; details: cynomolgus monkey
Method: Preclinical pharmacokinetic studies were performed in male Sprague–Dawley rats, beagle dogs, and cynomolgus monkeys (three animals per dosing group in each species) following federal and Institutional Animal Care and Use Committee (IACUC) guidelines as described previously ([32]). […] The oral fraction absorbed (F%) was calculated using the formula:
%F=( PO Dose AUC0−inf) x (IV Dose)/(IV Dose AUC0−inf) x (PO Dose)×100%

HIV-1 BaL [5] = experiment: p24 production antiviral assay in CD4+ T-lymphocytes; format: cell-based; details: Human immunodeficiency virus 1, T-lymphocyte, HIV-1BaL infected
Text: (§1) Antiviral assays performed in HIV-1BaL infected CD4 +T-lymphocytes and monocyte-derived macrophages (MDMs) have been described previously ([18]). Cell-free supernatants derived from the CD4 +T cell and macrophage cultures were harvested 7- and 12-days post-infection, respectively, and the amount of HIV present was quantified by p24 antigen enzyme-linked immunosorbent assay (ELISA, Perkin Elmer, Waltham, MA) performed according to the manufacturer’s protocol.

HIV-1 BaL [6] = experiment: p24 production antiviral assay in monocyte-derived macrophages; format: cell-based; details: Human immunodeficiency virus 1, Macrophage, HIV-1BaL infected
Text: as §1

in vitro = format: cell-based; details: human
Method: (§2) Compound cytotoxicity assessment in MT-4 cells, primary CD4+ T lymphocytes, and MDMs was carried out using a protocol identical to the antiviral assay except uninfected cells were used and tested with higher concentration ranges of test compounds. Assessment of cytotoxicity in additional human cell lines (Gal-PC3, Gal-HepG2, HEp-2, Huh-7, MRC-5, HepG2-NTCP, Huh7-Lunet HCV 1b and 2a replicons, NHBE, A549-hACE2) and primary human PBMCs (resting and stimulated with PHA/IL-2) and hepatocytes have been described previously ([19]). For all cytotoxicity assays, the CC50 value for puromycin was determined as a positive internal control and to assess assay sensitivity in each cell type. The effect of tested compounds on cell viability was measured using a CellTiter-Glo readout, performed according to the manufacturer’s recommendations.

Cytotoxicity in NHBE = format: cell-based; details: human, NHBE cells
Method: as §2

[7] = Cytotoxicity in Gal-HepG2; format: cell-based; details: human, Gal-HepG2 cells
Method: as §2

Cytotoxicity in Huh-7 = format: cell-based; details: human, Huh-7 cells
Method: as §2

[8] = Cytotoxicity in stimulated PBMCs; format: cell-based; details: human
Method: as §2

[9] = tested on: 20 HIV-1 clinical isolates; experiment: Antiviral assay in PBMCs with HIV-1 clinical isolates (RT endpoint); format: cell-based; details: Human immunodeficiency virus 1, PBMC, 168 h, read-out: mean EC50
Method: Antiviral assays using fresh human PBMCs independently infected with a panel of clinical HIV-1 and HIV-2 isolates were performed by Southern Research as a contracted research study and assessed 7 days post-infection using reverse transcriptase (RT) endpoint assay. Antiviral assays using HIV-1 reporter viruses containing patient-derived sequences encoding all of PR and a portion of RT (amino acids 1–313) and conferring resistance to FDA-approved HIV PIs were performed by Monogram Biosciences Inc. (South San Francisco, CA) using their previously described Phenosense assay ([25]).

HIV-1 IIIb = experiment: Dose-escalation resistance selection in MT-2 cells; format: cell-based
[10] = tested on: HIV-1LAI wild type and site-directed PR mutants; experiment: microbe, parasite or virus in culture; format: cell-based
HIV-1IIIb = experiment: Two-drug in vitro combination assay in MT-2 cells (MacSynergy II); format: cell-based
Method: Anti-HIV-1 assays evaluating the in vitro antiviral effect of two-drug combinations were performed in MT-2 cells as previously described ([26]). Data were normalized to positive and negative controls in each plate and expressed as a percentage of protection from CPE-dependent cell death and analyzed with the MacSynergy II software. Combination data were analyzed at the 99% confidence level, with synergy/antagonism volumes defined as follows: high synergy (>100 µM^2%), moderate synergy (50 to <100 uM^2%), additivity (>−50 to <50 µM^2%), and antagonism (<−50 µM^2%).

HBV = experiment: microbe, parasite or virus in culture; details: Hepatitis B virus
Method: (§3) The hepatitis B virus (HBV) surface antigen (HBsAg) antiviral assay was performed as previously described ([28]) using ND-654 as a positive control. The respiratory syncytial virus (RSV) A2 HEp-2 antiviral assay was performed as previously described ([29]) using YM-53403 as a positive control. The severe acute respiratory syndrome coronavirus 2 (SARS-CoV-2) antiviral assay was performed as described previously ([30]) using remdesivir as a positive control.

HCV-1b = experiment: microbe, parasite or virus in culture; details: Hepatitis C virus, Huh-7
SARS-CoV-2 = experiment: SARS-CoV2-Nluc reporter antiviral assay; details: Severe acute respiratory syndrome coronavirus 2
Method: as §3

CC(C)(CC1(c2ccc(-c3cnn(C4CC4)n3)cc2)NC(=N)N(C(COC(=O)NC2(C(F)F)CC2)c2ccc(Cl)c(-c3ncnn3C(F)F)c2)C1=O)C(F)(F)F (centres unmarked) [GS-9770]
predicted human plasma clearance [1]: 1.5 mL/min/kg | in vitro predicted blood CL [2]: 1.2 mL/min/kg | in vitro predicted blood CL [3]: 12 mL/min/kg | tolerability at the doses tested ([4]; 1 mg/kg IV, 4–5 mg/kg PO): well tolerated | clearance ([4]; plasma, 1 mg/kg IV): 5.67 mL/min/kg | bioavailability ([4]; plasma, 1 mg/kg IV and 4 mg/kg PO, read-out: F% (oral bioavailability)): 100 ± 34% | half-life ([4]; plasma, 1 mg/kg IV and 4 mg/kg PO, read-out: Terminal t1/2 (converted)): 7.4 ± 0.2 h | Vd ([4]; plasma, 1 mg/kg IV, read-out: Vss): 2.6 ± 0.8 L/kg | EC50 (HIV-1 BaL [5]): 8.5 ± 2.5 nM | EC50 (HIV-1 BaL [6]): 11 ± 14 nM | CC50 (in vitro): 15100 ± 2100 nM | CC50 (Cytotoxicity in NHBE): 4700 ± 1700 nM | CC50 [7]: 13000 ± 6000 nM | CC50 (Cytotoxicity in Huh-7): 17000 ± 3000 nM | CC50 [8]: 9100 ± 600 nM | EC50 [9]: 7.3 nM | GS-9770 concentration at variant first emergence (HIV-1 IIIb; variant L24I M46L A77I V82A): 100 nM | GS-9770 concentration at variant first emergence (HIV-1 IIIb; variant M46L A77I V82A): 100 nM | EC50 ([10]; Human immunodeficiency virus 1, PR L24I M46L A77I V82A): 5.9 ± 3.2 nM | EC50 ([10]; Human immunodeficiency virus 1, PR L24I M46L I64V A77I V82A): 22.4 ± 7.3 nM | EC50 ([10]; Human immunodeficiency virus 1, PR M46L A77I V82A): 8.3 ± 1.8 nM | EC50 ([10]; Human immunodeficiency virus 1, PR V82A): 8.2 ± 3.2 nM | EC50 ([10]; Human immunodeficiency virus 1, Wild type (WT) HIV-1LAI): 3.1 ± 1.6 nM | Antagonism volume (HIV-1IIIb): −3 ± 3 µM^2.% | Combination effect (HIV-1IIIb): Additive | Synergy volume (HIV-1IIIb): 23 ± 14 µM^2.% | EC50 (HBV): 11000 ± 4000 nM | EC50 (HCV-1b): 10800 ± 500 nM | EC50 (SARS-CoV-2): 5300 ± 1900 nM
